Measurements published in patent US7960339B2, “Antimicrobial peptides” (Österreichische Akademie der Wissenschaften, priority 2006, dated 2011).
Peptide text beside a SMILES is read from it.

Key:
[1] = system: LPS Re595; test: Local Shwartzmann reaction in rabbit (lipid A-induced hemorrhagic dermonecrosis); type: in vivo, New Zealand White rabbits; conditions: i.d. injection in shaved dorsal region; open necrosis observed after 72-96 hours; minimum 3 injections in minimum 3 rabbits
Description: (§1) The principle of lipid A-induced pro-inflammatory cytokine activity leading to hemorrhagic dermonecrosis (classical Shwartzmann reaction) was tested in rabbit, an animal model very close to humans in terms of sensitivity to LPS activity, and was compared to the inhibition of the lipid A-induced LAL enzymatic cascade activation leading to clot. Thereby, New Zealand White rabbits were injected in the shaved dorsal region with S. minnesota Re595 lipid A alone or with peptide 1:100 (w/w) (5 μg in 0.2 ml saline buffer; route i.d.). […] Polymyxin B (PmB) was used as a control.

[2] = system: LPS S. Minnesota Re595; test: Endpoint LAL activity (Limulus gel-clotting test), inhibition of lipid A-induced LAL enzymatic cascade; type: biochemical; conditions: sensibility 0.125 EU/ml, peptide:LPS 100:1 (w/w), minimum of 6 tests in triplicate
Description: as §1

[3] = system: C. neoformans ATCC 32045; type: cell-based; conditions: OD620, 72 hrs at 26° C., 2×YM broth
In short: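 Fungal inoculum was about 1×10^5 to 5×10^5 CFU/ml in 2×YM broth, added to peptides dispensed at 1 mg/ml to 1 μg/ml in twofold serial dilutions. After 72 hrs at 26° C, relative growth was read as OD620. IC50 values came from sigmoidal curve fitting.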

[4] = system: MonoMac6 cells; test: Release of TNFα from MonoMac6 cells stimulated by bacteria killed with antibiotics or peptides (ELISA); type: cell-based; conditions: E. coli strain 0:111 incubated over night with agent, then 15 hours on 10^5 MonoMac6 cells; FIG. 5
Description: Bacteria can be killed by different antibiotics, targeting different molecules essential for bacterial survival. When Gram-negative bacteria are killed, released LPS can stimulate production of cytokines, such as TNFα, or other inflammatory mediators. Comparison of well-established antimicrobial agents acting through different cellular targets with compounds of this invention were done in the following manner: bacteria (E. coli strain 0:111) were grown in LB medium to the absorbance at 600 nm of 0.4 and diluted 2500 fold in RPMI medium with added glucose. Different concentrations of antibiotics or peptides from this invention were added and incubated over night. 80 μl of cell suspension was added to the 100 μl containing 10^5 MonoMac6 cells and after 15 hours the release of TNFα to the medium was determined using ELISA test.

[5] = system: E. coli LPS; test: Mouse model of acute endotoxemia (LPS plus galactosamine); type: in vivo, ICR-CD1 mice; conditions: 150 μg intraperitoneal immediately after 0.3 μg E. coli LPS + 18 mg galactosamine; monitored until 168 hours
Description: Mice are remarkably resistant to LPS-mediated septic shock. However, the sensitivity of mice to endotoxin can be potentiated by coinjecting LPS with galactosamine. Groups of 16-18 female ICR-CD1 mice of 20-25 g of weight were intraperitoneally injected with 200 μl of pyrogen-free saline containing a mixture of 0.3 μg of E. coli LPS and 18 mg of galactosamine. Previous experiments allowed to determine that such a combination was lethal for 90% (LD90) of the animals 48 h after the injection. Immediately after this challenge, mice received a second intraperitoneal injection at a different site of the abdomen containing 150 μg of the peptide dissolved in 150 μl of 10% DMF pyrogen-free saline. In all the experiments a group of mice was left untreated whereas another group received 150 μg of polymyxin B. Mortality of the animals was monitored at daily intervals until 168 hours postchallenge.

Molecule | Local Shwartzmann reaction in rabbit peptide: LPS Re595 100:1 (w/w) [1] | Endpoint LAL activity peptide: LPS Re595 100:1 (w/w) [2] | average IC50 ([3]; 50% growth inhibition) [µg/mL] | average MIC ([3]; lowest concentration that resulted in 2% growth) [µg/mL] | release of TNFα / stimulation of the monocytes [4] | protection against endotoxic shock (mortality) [5]
CC[C@H](C)[C@H](NC(=O)[C@H](CCCNC(=N)N)NC(=O)[C@@H](NC(=O)[C@H](CCCNC(=N)N)NC(=O)[C@H](Cc1c[nH]c2ccccc12)NC(=O)[C@H](Cc1ccccc1)NC(=O)[C@@H]1CCCN1)[C@@H](C)CC)C(=O)N[C@@H](CCCNC(=N)N)C(=O)N[C@@H](CCCNC(=N)N)C(N)=O [VS1-22, PFWRIRIRR-NH2] (H-PFWRIRIRR-NH2; N-terminus assumed) | NEGATIVE | NEGATIVE | 2 | 8 | significantly inhibited the release of TNFα | –
polymyxin B [PmB, reference compound] | NEGATIVE | NEGATIVE | – | – | significantly inhibited the release of TNFα | did not confer significant protection
